Measurements: patent US20050163850A1, “Administration of levodopa and carbidopa” (priority 2003, published 2005)
Values joined by “and” are separate entries in the source; they are usually repeats but may differ in a detail not shown here. Equal values may be shown once. Read-outs that look alike come from different tables or passages of the source.

Legend:
[1] = cited from earlier work
[2] = duodenal, 2 mg levodopa lauryl sulfate/rat (0.85 mg levodopa equivalent/rat), individual rats
[3] = Intravenous levodopa group of Example 10, levodopa plasma level; format: in vivo; settings: 0.4 mg levodopa/kg, individual rats 1-3 (Table C)
Description: Another group of rats were treated with levodopa intravenously, at a dose of 0.4 mg/kg.

[4] = iv, 0.4 mg levodopa/kg, individual rats 1-3 (Table D)
[5] = with carbidopa; cited from earlier work
[6] = cited from earlier work; remark: listed apart in the source
[7] = after oral administration; cited from earlier work
in vivo = settings: rat, plasma, iv, 0.4 mg/kg, Plasma level (levodopa), 0.4 mg levodopa/kg, individual rats 1-3 (Table D)

SMILES: C[C@@](Cc1ccc(O)c(O)c1)(NN)C(=O)O [Carbidopa, (−)-L-((alpha)-hydrazino-((alpha)-methyl-(beta)-(3,4-dihydroxybenzene)propanoic acid monohydrate]
- solubility in water [1]: slightly soluble in water

SMILES: CCCCCCCCCCCCOS(=O)(=O)O.N[C@@H](Cc1ccc(O)c(O)c1)C(=O)O [Levodopa lauryl sulfate, Levodopa-Lauryl Sulfate Complex]
- Plasma level (levodopa) ([2]; time 0 h): 9.42 ng/mL and 8.7 ng/mL and 8.55 ng/mL
- Plasma level (levodopa) ([2]; time 1 h): 57.3 ng/mL and 51.3 ng/mL and 43.7 ng/mL
- Plasma level (levodopa) ([2]; time 2 h): 21.3 ng/mL and 22 ng/mL and 9.24 ng/mL
- Plasma level (levodopa) ([2]; time 3 h): 12 ng/mL and 11.6 ng/mL and 24 ng/mL
- Plasma level (levodopa) ([2]; time 4 h): 8.07 ng/mL and 7.45 ng/mL and 19.6 ng/mL

SMILES: N[C@@H](Cc1ccc(O)c(O)c1)C(=O)O [Levodopa, (−)-L-(alpha)-amino-(beta)-(3,4-dihydroxybenzene) propanoic acid]
- Plasma level (levodopa) ([3]; time 0 h): 0 ng/mL
- Plasma level (levodopa) ([3]; time 0.033 h): 336 ng/mL and 247 ng/mL and 690 ng/mL
- Plasma level (levodopa) ([3]; time 0.5 h): 16 ng/mL and 11.4 ng/mL and 41.6 ng/mL
- Plasma level (levodopa) ([3]; time 1 h): 7.34 ng/mL and 11.5 ng/mL and 18.2 ng/mL
- Plasma level (levodopa) ([3]; time 1.5 h): 6.51 ng/mL and 0 ng/mL and 13.8 ng/mL
- Plasma level (levodopa) ([3]; time 2 h): 0 ng/mL and 5.82 ng/mL and 8.23 ng/mL
- Plasma level (levodopa) ([3]; time 3 h): 0 ng/ml (2×) and 5.53 ng/ml
- concentration at 0 h ([3]; Sprague-Dawley, rat, plasma, 0.4 mg/kg, time 0 h): 0 ng/mL
- Plasma level (levodopa) ([4]; time 0 h): 0 ng/mL
- Plasma level (levodopa) ([4]; time 0.033 h): 336 ng/mL and 247 ng/mL and 690 ng/mL
- Plasma level (levodopa) ([4]; time 0.5 h): 16 ng/mL and 11.4 ng/mL and 41.6 ng/mL
- Plasma level (levodopa) ([4]; time 1 h): 7.34 ng/mL and 11.5 ng/mL and 18.2 ng/mL
- Plasma level (levodopa) ([4]; time 1.5 h): 6.51 ng/mL and 0 ng/mL and 13.8 ng/mL
- Plasma level (levodopa) ([4]; time 2 h): 0 ng/mL and 5.82 ng/mL and 8.23 ng/mL
- Plasma level (levodopa) ([4]; time 3 h): 0 ng/ml (2×) and 5.53 ng/ml
- plasma half-life of levodopa [5]: 1.5 h
- average intraindividual coefficient of variation for the plasma levodopa concentrations ([6]; after oral therapy (sustained-release tablets)): 34%
- average intraindividual coefficient of variation for the plasma levodopa concentrations ([6]; during continuous intestinal infusion, p<0.01): 14%
- time within which practically all absorption of levodopa occurs [7]: ≤ 4 h
- solubility in water [1]: slightly soluble in water
- concentration at 0 h (in vivo): 0 ng/mL
